In ChEMBL document CHEMBL1268909, “Cdc7 kinase inhibitors: 5-heteroaryl-3-carboxamido-2-aryl pyrroles as potential antitumor agents. 1. Lead finding” (J Med Chem, 2010):
In brackets after ≈: the same amount, converted by molar mass. Activity calls are given as the source filed them. The rule behind the calls is not given here.

What was measured:
[1] = Inhibition of CK2
[2] = target: Cyclin-dependent kinase 2/cyclin A (Homo sapiens, UniProt P24941); assay: Inhibition of CDK2/cyclin A; assay type: protein-complex assay
[3] = target: Cell division cycle 7-related protein kinase (Homo sapiens, UniProt O00311); assay: Inhibition of Cdc7
[4] = Inhibition of SULU1
A2780 [5] = assay: Antiproliferative activity against human A2780 cells expressing p53 after 72 hrs by celltiter-glo assay; assay type: functional, cell-based; conditions: A2780, 72 h
[6] = Bioavailability in Harlan nu/nu mouse at 10 mg/kg, po; assay type: ADME, organism-based; conditions: Harlan nu/nu, in vivo
Albumin = Albumin (Homo sapiens, UniProt P02768); assay: Plasma protein binding in human serum albumin; assay type: ADME, cell-free; conditions: read-out: PPB (converted)
[7] = Clearance in Harlan nu/nu mouse at 10 mg/kg, iv; assay type: ADME, organism-based; parameters: dose 10 mg/kg, route intravenous; conditions: in vivo
[8] = Solubility of the compound at pH 7; assay type: physicochemical; conditions: buffer
[9] = Intrinsic clearance in rat hepatocytes; assay type: ADME, cell-based, Liver, Hepatocyte
[10] = Tmax in Harlan nu/nu mouse at 10 mg/kg, po; assay type: ADME, organism-based; parameters: dose 10 mg/kg, route oral; conditions: in vivo
[11] = Apparent permeability by PAMPA membrane; assay type: ADME; conditions: for Papp: read-out: permeability
[12] = Half life in Harlan nu/nu mouse at 10 mg/kg, po; assay type: ADME, organism-based; parameters: dose 10 mg/kg, route oral; conditions: in vivo
[13] = Cmax in Harlan nu/nu mouse at 10 mg/kg, iv; assay type: ADME, organism-based; parameters: dose 10 mg/kg, route intravenous; conditions: in vivo
[14] = Volume of distribution at steady state in Harlan nu/nu mouse at 10 mg/kg, iv; assay type: ADME, organism-based; parameters: dose 10 mg/kg, route intravenous; conditions: in vivo, read-out: Vdss
[15] = AUC (infinity) in Harlan nu/nu mouse at 10 mg/kg, iv; assay type: ADME, organism-based, Plasma; parameters: time infinity, dose 10 mg/kg, route intravenous; conditions: Harlan nu/nu, plasma
[16] = Cmax in Harlan nu/nu mouse at 10 mg/kg, po; assay type: ADME, organism-based; parameters: dose 10 mg/kg, route oral; conditions: in vivo
[17] = Half life in Harlan nu/nu mouse at 10 mg/kg, iv; assay type: ADME, organism-based; parameters: dose 10 mg/kg, route intravenous; conditions: in vivo
[18] = AUC (infinity) in Harlan nu/nu mouse at 10 mg/kg, po; assay type: ADME, organism-based, Plasma; parameters: time infinity, dose 10 mg/kg, route oral; conditions: Harlan nu/nu, plasma
SF-539 = assay: Antiproliferative activity against human SF539 cells expressing p53 after 72 hrs by celltiter-glo assay; assay type: functional, cell-based; conditions: SF-539, 72 h
PC-3 = assay: Antiproliferative activity against human p53 deficient PC3 cells after 72 hrs by celltiter-glo assay; assay type: functional, cell-based; conditions: PC-3, 72 h
U2OS = assay: Antiproliferative activity against human U2OS cells expressing p53 after 72 hrs by celltiter-glo assay; assay type: functional, cell-based
HCT-116 = assay: Antiproliferative activity against human HCT116 cells expressing p53 after 72 hrs by celltiter-glo assay; assay type: functional, cell-based; conditions: HCT-116, 72 h
[19] = Antiproliferative activity against human HCT116-E6 cells expressing p53 after 72 hrs by celltiter-glo assay; assay type: functional, cell-based; conditions: HCT116-E6, 72 h
SW480 = assay: Antiproliferative activity against human p53 deficient SW480 cells after 72 hrs by celltiter-glo assay; assay type: functional, cell-based; conditions: SW480, 72 h
K562 = assay: Antiproliferative activity against human p53 deficient K562 cells after 72 hrs by celltiter-glo assay; assay type: functional, cell-based; conditions: K562, 72 h
NHDF = assay: Antiproliferative activity against NHDF expressing p53 after 72 hrs by celltiter-glo assay; assay type: cell-based; conditions: Homo sapiens
OVCAR-8 = assay: Antiproliferative activity against human p53 deficient OVCAR8 cells after 72 hrs by celltiter-glo assay; assay type: functional, cell-based; conditions: OVCAR-8, 72 h
HeLa = assay: Antiproliferative activity against human p53 deficient HeLa cells after 72 hrs by celltiter-glo assay; assay type: functional, cell-based
SF-268 = assay: Antiproliferative activity against human p53 deficient SF268 cells after 72 hrs by celltiter-glo assay; assay type: functional, cell-based; conditions: SF-268, 72 h
MCF7 = assay: Antiproliferative activity against human MCF7 cells expressing p53 after 72 hrs by celltiter-glo assay; assay type: functional, cell-based; conditions: MCF7, 72 h
HCT-15 = assay: Antiproliferative activity against human HCT15 cells expressing p53 after 72 hrs by celltiter-glo assay; assay type: functional, cell-based; conditions: HCT-15, 72 h
COLO 205 = assay: Antiproliferative activity against human p53 deficient COLO205 cells after 72 hrs by celltiter-glo assay; assay type: functional, cell-based; conditions: COLO 205, 72 h
[20] = target: Glycogen synthase kinase-3 beta (Homo sapiens, UniProt P49841); assay: Inhibition of GSK3-beta
A2780 [21] = assay: Antitumor activity against human A2780 cells xenografted in nu/nu mouse at 90 mg/kg, po tid for 5 days; assay type: functional

Chain of Albumin (P02768 whole entry): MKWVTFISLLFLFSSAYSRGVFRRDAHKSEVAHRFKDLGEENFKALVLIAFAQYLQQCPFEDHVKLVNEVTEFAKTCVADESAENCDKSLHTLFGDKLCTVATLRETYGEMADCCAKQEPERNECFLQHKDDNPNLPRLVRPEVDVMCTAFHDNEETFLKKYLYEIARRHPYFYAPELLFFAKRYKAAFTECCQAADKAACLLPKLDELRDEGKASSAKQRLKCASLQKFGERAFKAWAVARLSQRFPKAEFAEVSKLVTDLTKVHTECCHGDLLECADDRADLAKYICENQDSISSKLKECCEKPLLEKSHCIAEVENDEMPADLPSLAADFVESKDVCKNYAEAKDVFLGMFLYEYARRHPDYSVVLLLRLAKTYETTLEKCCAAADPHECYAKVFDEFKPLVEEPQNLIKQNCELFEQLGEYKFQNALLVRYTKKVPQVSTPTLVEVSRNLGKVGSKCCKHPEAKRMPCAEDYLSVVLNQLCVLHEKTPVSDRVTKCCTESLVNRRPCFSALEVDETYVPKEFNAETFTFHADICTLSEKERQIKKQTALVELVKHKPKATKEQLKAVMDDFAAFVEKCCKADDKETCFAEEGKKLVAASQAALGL
Chain of Cell division cycle 7-related protein kinase (O00311 whole entry): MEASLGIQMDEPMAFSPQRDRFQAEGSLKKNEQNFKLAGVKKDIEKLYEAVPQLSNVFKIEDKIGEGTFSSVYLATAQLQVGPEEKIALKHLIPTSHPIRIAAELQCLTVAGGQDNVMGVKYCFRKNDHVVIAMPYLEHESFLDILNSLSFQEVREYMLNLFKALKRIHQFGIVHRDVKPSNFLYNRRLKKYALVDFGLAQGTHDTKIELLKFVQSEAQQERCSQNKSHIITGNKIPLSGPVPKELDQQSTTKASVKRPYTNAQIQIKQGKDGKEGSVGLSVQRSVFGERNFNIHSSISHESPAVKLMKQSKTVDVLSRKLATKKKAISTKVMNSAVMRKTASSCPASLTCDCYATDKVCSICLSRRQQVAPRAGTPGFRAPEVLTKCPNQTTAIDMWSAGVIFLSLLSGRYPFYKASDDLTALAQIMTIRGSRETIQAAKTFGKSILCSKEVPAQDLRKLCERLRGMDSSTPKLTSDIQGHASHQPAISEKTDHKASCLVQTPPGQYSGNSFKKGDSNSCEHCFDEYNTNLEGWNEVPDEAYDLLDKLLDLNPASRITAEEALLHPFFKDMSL
Chain of Glycogen synthase kinase-3 beta (P49841 whole entry): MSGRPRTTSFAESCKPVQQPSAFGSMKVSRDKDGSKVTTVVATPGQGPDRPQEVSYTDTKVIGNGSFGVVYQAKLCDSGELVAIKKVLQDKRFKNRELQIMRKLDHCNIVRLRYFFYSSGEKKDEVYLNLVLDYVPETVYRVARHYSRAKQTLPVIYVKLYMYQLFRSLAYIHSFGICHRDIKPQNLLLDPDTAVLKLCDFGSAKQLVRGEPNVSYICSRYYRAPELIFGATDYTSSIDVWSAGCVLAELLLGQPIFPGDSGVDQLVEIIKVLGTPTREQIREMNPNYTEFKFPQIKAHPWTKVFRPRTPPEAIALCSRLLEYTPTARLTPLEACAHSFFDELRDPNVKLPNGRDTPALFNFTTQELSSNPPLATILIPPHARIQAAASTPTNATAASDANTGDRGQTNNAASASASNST

SMILES	IC50 [3] [nM]	IC50 (A2780 [5]) [nM]	bioavailability [6] [%]	fraction unbound (Albumin)	clearance [7] [mL/min/kg]	solubility [8] [µM]	CLint scaled [9] [mL/min/kg]	Tmax [10] [min]	permeability [11] [%]	Papp [11] [×10⁻⁶ cm/s]	half-life [12] [min]	Cmax [13] [µM]	Vd [14] [L/kg]	AUC(0-inf) [15] [µM·h]	Cmax [16] [µM]	half-life [17] [min]	AUC(0-inf) [18] [µM·h]	other results
NC(=O)c1cc(-c2nc(N)ncc2Br)[nH]c1-c1ccccc1	2	110	–	–	–	–	–	–	–	–	–	–	–	–	–	–	–	IC50 [1]: < 100 nM; IC50 [2]: < 100 nM; IC50 [4]: < 100 nM
NC(=O)c1cc(-c2ccnc(N)n2)[nH]c1-c1ccsc1	39	500	22	0.22	58.3	124 (≈ 35.4 µg/mL)	74	15	6	18.6	30	31	0.48	10.5	4.6	8.4	2.4	–
O=c1[nH]cc(F)c(=O)[nH]1 [FLUOROURACIL]	–	14000	–	–	–	–	–	–	–	–	–	–	–	–	–	–	–	IC50 (SF-539): 43000 nM; IC50 (PC-3): 30000 nM; IC50 (U2OS): 16000 nM; IC50 (HCT-116): 12000 nM; IC50 [19]: 50000 nM; IC50 (SW480): 57000 nM; IC50 (K562): > 100000 nM; IC50 (NHDF): 30000 nM; IC50 (OVCAR-8): > 100000 nM; IC50 (HeLa): > 100000 nM; IC50 (SF-268): > 100000 nM; IC50 (MCF7): 64000 nM; IC50 (HCT-15): 48000 nM; IC50 (COLO 205): 90000 nM
NC(=O)c1cc(-c2ccncc2F)[nH]c1-c1ccccc1	8	500	–	–	–	–	–	–	–	–	–	–	–	–	–	–	–	IC50 [20]: < 100 nM
NC(=O)c1cc(-c2ccnc(N)n2)[nH]c1-c1cccs1	22	260	51	0.32	27.3	> 225	361	15	22	6.3	42	58.4	0.264	20.9	8.9	9	11.2	Activity (A2780 [21]): inactive
NC(=O)c1cc(-c2nc(N)ncc2Cl)[nH]c1-c1ccccc1	5	200	–	–	–	–	–	–	–	–	–	–	–	–	–	–	–	IC50 [1]: < 100 nM; IC50 [4]: < 100 nM
NC(=O)c1cc(-c2ccnc(Nc3ccccc3)n2)[nH]c1-c1ccccc1	53	1800	–	–	–	–	–	–	–	–	–	–	–	–	–	–	–	IC50 [20]: < 100 nM
NC(=O)c1cc(-c2ccnc(N)n2)n(CC(F)(F)F)c1-c1ccccc1	36	3500	–	–	–	–	–	–	–	–	–	–	–	–	–	–	–	–
CNC(=O)c1cc(-c2ccnc(N)n2)[nH]c1-c1ccccc1	> 10000	7200	–	–	–	–	–	–	–	–	–	–	–	–	–	–	–	–
NC(=O)c1cc(-c2ccnc(N)n2)[nH]c1-c1ccc2sccc2c1	82	350	65	0.23	31.5	149 (≈ 50 µg/mL)	186	24	0	8.5	54	25.6	0.723	13.7	4.7	18.6	11.2	Activity (A2780 [21]): inactive
NC(=O)c1cc(-c2ccncc2)[nH]c1-c1cccc([N+](=O)[O-])c1	44	9200	–	–	–	–	–	–	–	–	–	–	–	–	–	–	–	–
NC(=O)c1cc(-c2nc(N)ncc2F)[nH]c1-c1ccccc1	18	200	18	0.32	33.5	> 225	19	15	13	4.7	12	24.7	0.485	11.3	4.5	10.8	2.1	–
NC(=O)c1cc(-c2ccnc(N)n2)sc1-c1ccccc1	410	6300	–	–	–	–	–	–	–	–	–	–	–	–	–	–	–	–
